Data on 13 molecules can be found in patent publication US20250368649A1, “TETRAHYDROPYRIDOPYRIMIDINE PAN-KRAS INHIBITORS” (Mirati Therapeutics, Inc., priority 2022, published 2025).

The target of one assay is KRas WT (Homo sapiens, UniProt P01116). In words: KRas binding assay (TR-FRET displacement), KRas WT. To be noted: TR-FRET displacement. Background: In TR-FRET formats the signal depends on donor and acceptor labels being close together.
The target in another assay is KRas G12A (Homo sapiens, UniProt P01116, G12A). It is filed as binding. Particulars: TR-FRET displacement, read-out: Binding to KRas (IC50 nM) G12A.
Sequence of KRas G12A (P01116 1-169 isoform P01116-2 G12A): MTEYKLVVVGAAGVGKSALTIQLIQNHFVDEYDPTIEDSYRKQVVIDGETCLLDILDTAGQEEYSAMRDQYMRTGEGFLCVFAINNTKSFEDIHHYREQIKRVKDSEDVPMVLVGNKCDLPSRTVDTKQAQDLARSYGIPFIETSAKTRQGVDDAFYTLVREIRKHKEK
The next assay deals with KRas G12C (Homo sapiens, UniProt P01116, G12C). It is filed as binding. To be noted: TR-FRET displacement, read-out: Binding to KRas (IC50 nM) G12C.
Sequence of KRas G12C (P01116 1-169 isoform P01116-2 G12C): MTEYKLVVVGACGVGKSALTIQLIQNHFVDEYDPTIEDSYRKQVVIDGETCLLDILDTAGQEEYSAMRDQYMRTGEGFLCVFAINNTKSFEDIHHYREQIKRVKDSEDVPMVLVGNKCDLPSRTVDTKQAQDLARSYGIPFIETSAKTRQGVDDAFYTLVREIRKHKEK
The next assay addresses KRas G12S (Homo sapiens, UniProt P01116, G12S). Format: binding. To be noted: TR-FRET displacement, read-out: Binding to KRas (IC50 nM) G12S.
Another assay addresses KRas G13D (Homo sapiens, UniProt P01116, G13D). Format: binding. To be noted: TR-FRET displacement, read-out: Binding to KRas (IC50 nM) G13D.
The target of another assay is KRas Q61H (Homo sapiens, UniProt P01116, Q61H). The experiment in a line: KRas binding assay (TR-FRET displacement), KRas Q61H. To be noted: TR-FRET displacement.
Sequence of KRas Q61H (P01116 1-169 isoform P01116-2 Q61H): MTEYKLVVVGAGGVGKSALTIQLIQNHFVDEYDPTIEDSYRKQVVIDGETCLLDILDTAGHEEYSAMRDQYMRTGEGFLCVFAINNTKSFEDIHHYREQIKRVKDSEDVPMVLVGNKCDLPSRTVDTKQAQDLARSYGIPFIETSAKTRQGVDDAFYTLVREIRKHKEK
The next assay addresses KRas G12D (Homo sapiens, UniProt P01116, G12D). The experiment in a line: biochemical. Particulars: Binding to KRas (IC50 nM) G12D, TR-FRET displacement, KRas G12D.
In the next assay the target is KRas G12V (Homo sapiens, UniProt P01116, G12V). In words: biochemical. To be noted: Binding to KRas (IC50 nM) G12V, TR-FRET displacement, KRas G12V.
Sequence of KRas G12V (P01116 1-169 isoform P01116-2 G12V): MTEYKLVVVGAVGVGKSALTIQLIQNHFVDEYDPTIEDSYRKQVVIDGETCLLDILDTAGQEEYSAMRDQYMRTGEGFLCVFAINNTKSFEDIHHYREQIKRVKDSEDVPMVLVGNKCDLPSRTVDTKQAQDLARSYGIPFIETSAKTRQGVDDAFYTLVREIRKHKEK

Sequence of KRas G12S (P01116 1-169 isoform P01116-2 G12S): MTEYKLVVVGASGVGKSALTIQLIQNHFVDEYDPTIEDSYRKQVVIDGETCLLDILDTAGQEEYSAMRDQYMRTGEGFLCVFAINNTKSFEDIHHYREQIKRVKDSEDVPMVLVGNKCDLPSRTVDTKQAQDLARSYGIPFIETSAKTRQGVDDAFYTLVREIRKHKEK
Sequence of KRas WT (P01116 1-169 isoform P01116-2): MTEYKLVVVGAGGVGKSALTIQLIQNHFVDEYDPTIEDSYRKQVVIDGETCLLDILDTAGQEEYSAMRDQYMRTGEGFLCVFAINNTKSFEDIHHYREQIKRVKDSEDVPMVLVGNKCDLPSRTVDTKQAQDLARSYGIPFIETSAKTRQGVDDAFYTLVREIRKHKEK
Sequence of KRas G12D (P01116 1-169 isoform P01116-2 G12D): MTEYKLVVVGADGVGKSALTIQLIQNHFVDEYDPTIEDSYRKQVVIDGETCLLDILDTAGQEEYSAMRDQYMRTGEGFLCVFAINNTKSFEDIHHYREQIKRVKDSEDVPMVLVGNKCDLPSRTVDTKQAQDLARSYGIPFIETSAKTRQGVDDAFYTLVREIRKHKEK
Sequence of KRas G13D (P01116 1-169 isoform P01116-2 G13D): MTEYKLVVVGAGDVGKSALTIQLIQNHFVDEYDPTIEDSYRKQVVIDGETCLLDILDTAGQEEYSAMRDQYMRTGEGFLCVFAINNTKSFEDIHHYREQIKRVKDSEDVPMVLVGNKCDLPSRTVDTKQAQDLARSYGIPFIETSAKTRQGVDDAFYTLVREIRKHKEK

Turning to `CCc1cccc2cccc(N3CCc4c(nc(OCC5(CN(C)C)CC5)nc4N4CCOC(c5noc(C6CC6)n5)C4)C3)c12` (centres unmarked) [Example 566, 1-(1-(((4-(2-(5-cyclopropyl-1,2,4-oxadiazol-3-yl)morpholino)-7-(8-ethylnaphthalen-1-yl)-5,6,7,8-tetrahydropyrido[3,4-d]pyrimidin-2-yl)oxy)methyl)cyclopropyl)-N,N-dimethylmethanamine], the IC50 (in general, the point on the concentration scale where inhibition reaches its midpoint) on KRas WT was found to be 8780 nM; at KRas G12A it was 7990 nM; on KRas G12C it was 3760 nM; at KRas G12S it was 8690 nM; on KRas G13D, 15300 nM; at KRas Q61H it was 15200 nM. The IC50 on KRas G12D came out at 35600 nM; at KRas G12V it was 5700 nM.
Take `CCc1cccc2cccc(N3CCc4c(nc(OCC5(CN(C)C)CC5)nc4NCc4cc(C5CC5)nn4C)C3)c12` [Example 567, N-((3-cyclopropyl-1-methyl-1H-pyrazol-5-yl)methyl)-2-((1-((dimethylamino)methyl)cyclopropyl)methoxy)-7-(8-ethylnaphthalen-1-yl)-5,6,7,8-tetrahydropyrido[3,4-d]pyrimidin-4-amine]: the IC50 is 11600 nM at KRas WT; 6050 nM at KRas G12A; 3470 nM on KRas G12C; 4330 nM at KRas G12S; 11800 nM at KRas G13D; 9550 nM at KRas Q61H. Also, the concentration for half-maximal inhibition (IC50) on KRas G12D was determined as 37600 nM; on KRas G12V, 5760 nM.
Take `CCc1cccc2cccc(N3CCc4c(nc(OCC5(CN(C)C)CC5)nc4NCCc4ncc(F)cc4F)C3)c12` [Example 568, N-(2-(3,5-difluoropyridin-2-yl)ethyl)-2-((1-((dimethylamino)methyl)cyclopropyl)methoxy)-7-(8-ethylnaphthalen-1-yl)-5,6,7,8-tetrahydropyrido[3,4-d]pyrimidin-4-amine]: the IC50 was 15700 nM at KRas WT; 13400 nM on KRas G12A; 7900 nM on KRas G12C; 13600 nM on KRas G12S; 19800 nM on KRas G13D; 15300 nM at KRas Q61H. The concentration for half-maximal inhibition (IC50) at KRas G12D is 39100 nM; on KRas G12V, 5210 nM.
With `CCc1cccc2cccc(N3CCc4c(nc(OCC5(CN(C)C)CC5)nc4NCC4(c5ccccc5)CCC(=O)N4)C3)c12` (centres unmarked) [Example 569, 5-(((2-((1-((dimethylamino)methyl)cyclopropyl)methoxy)-7-(8-ethylnaphthalen-1-yl)-5,6,7,8-tetrahydropyrido[3,4-d]pyrimidin-4-yl)amino)methyl)-5-phenylpyrrolidin-2-one], the IC50 stood at 12200 nM at KRas WT; 10800 nM on KRas G12A; 7220 nM at KRas G12C; 8590 nM on KRas G12S; 16900 nM at KRas G13D; 10500 nM at KRas Q61H. For the same molecule, the 50% inhibitory concentration (IC50) on KRas G12D worked out at 41500 nM; on KRas G12V, 4610 nM.
On to `CCc1cccc2cccc(N3CCc4c(nc(OCC5(CN(C)C)CC5)nc4NCCc4nnc5n4CCC5)C3)c12` [Example 570, N-(2-(6,7-dihydro-5H-pyrrolo[2,1-c][1,2,4]triazol-3-yl)ethyl)-2-((1-((dimethylamino)methyl)cyclopropyl)methoxy)-7-(8-ethylnaphthalen-1-yl)-5,6,7,8-tetrahydropyrido[3,4-d]pyrimidin-4-amine], for which the half-maximal inhibitory concentration (IC50) at KRas WT amounted to 99 nM; on KRas G12A, 134 nM; at KRas G12C, 74 nM; at KRas G12S, 58 nM; at KRas G13D it was 72 nM; on KRas Q61H it was 37 nM. Also, the IC50 on KRas G12D amounted to 39000 nM; at KRas G12V, 13700 nM.
In the case of `CCc1cccc2cccc(N3CCc4c(nc(OCC5(CN(C)C)CC5)nc4NCc4cnnn4C)C3)c12` [Example 662, 2-((1-((dimethylamino)methyl)cyclopropyl)methoxy)-7-(8-ethylnaphthalen-1-yl)-N-((1-methyl-1H-1,2,3-triazol-5-yl)methyl)-5,6,7,8-tetrahydropyrido[3,4-d]pyrimidin-4-amine], the IC50 on KRas WT worked out at 10300 nM; at KRas G12A, 9520 nM; on KRas G12C, 5470 nM; at KRas G12S, 10100 nM; on KRas G13D, 13600 nM; at KRas Q61H, 10500 nM. For the same molecule, the IC50 on KRas G12D amounted to 14400 nM; at KRas G12V, 4040 nM.
For `CCc1cccc2cccc(N3CCc4c(nc(OCC5(CN(C)C)CC5)nc4N4CCn5nncc5C4)C3)c12` [Example 665, 1-(1-(((4-(6,7-dihydro-[1,2,3]triazolo[1,5-a]pyrazin-5(4H)-yl)-7-(8-ethylnaphthalen-1-yl)-5,6,7,8-tetrahydropyrido[3,4-d]pyrimidin-2-yl)oxy)methyl)cyclopropyl)-N,N-dimethylmethanamine], the 50% inhibitory concentration (IC50) on KRas WT was 87600 nM; at KRas G12A, 83100 nM; on KRas G12C, 37800 nM; at KRas G12S, 62800 nM; at KRas G13D it was > 100000 nM; on KRas Q61H, > 100000 nM. The results for the half-inhibitory concentration (IC50) at KRas G12D and at KRas G12V were 6840 nM and 10800 nM, respectively.
On to `CCc1cccc2cccc(N3CCc4c(nc(OCC5(CN(C)C)CC5)nc4NCCc4sc(N)nc4C)C3)c12` [Example 670, 5-(2-((2-((1-((dimethylamino)methyl)cyclopropyl)methoxy)-7-(8-ethylnaphthalen-1-yl)-5,6,7,8-tetrahydropyrido[3,4-d]pyrimidin-4-yl)amino)ethyl)-4-methylthiazol-2-amine], for which the 50% inhibitory concentration (IC50) at KRas WT came to 1960 nM; on KRas G12A, 1880 nM; on KRas G12C, 602 nM; at KRas G12S it was 1980 nM; at KRas G13D, 1970 nM; at KRas Q61H, 2030 nM. The concentration for half-maximal inhibition (IC50) on KRas G12D was 9750 nM; at KRas G12V, 1540 nM.
Consider `CCc1cccc2cccc(N3CCc4c(nc(OCC5(CN(C)C)CC5)nc4NCCc4nnc(N)o4)C3)c12` [Example 671, 5-(2-((2-((1-((dimethylamino)methyl)cyclopropyl)methoxy)-7-(8-ethylnaphthalen-1-yl)-5,6,7,8-tetrahydropyrido[3,4-d]pyrimidin-4-yl)amino)ethyl)-1,3,4-oxadiazol-2-amine], for which the IC50 was 23900 nM at KRas WT; 10200 nM on KRas G12A; 5240 nM on KRas G12C; 16500 nM on KRas G12S; 33000 nM at KRas G13D; 30200 nM at KRas Q61H. Also, the half-maximal inhibitory concentration (IC50) at KRas G12D stood at 11800 nM; at KRas G12V, 1980 nM.
Turning to `CCc1cccc2cccc(N3CCc4c(nc(OCC5(CN(C)C)CC5)nc4NC4CN(c5nncs5)C4)C3)c12` [Example 674, N-(1-(1,3,4-thiadiazol-2-yl)azetidin-3-yl)-2-((1-((dimethylamino)methyl)cyclopropyl)methoxy)-7-(8-ethylnaphthalen-1-yl)-5,6,7,8-tetrahydropyrido[3,4-d]pyrimidin-4-amine], the IC50 on KRas WT came out at 3490 nM; at KRas G12A it was 3970 nM; on KRas G12C it was 2030 nM; on KRas G12S it was 3700 nM; at KRas G13D it was 4050 nM; at KRas Q61H, 3960 nM. The IC50 on KRas G12D came to 1410 nM; at KRas G12V it was 1250 nM.
Turning to `CCc1cccc2cccc(N3CCc4c(nc(OCC5(CN(C)C)CC5)nc4NCc4nc(C5CC5)n[nH]4)C3)c12` [Example 675, N-((3-cyclopropyl-1H-1,2,4-triazol-5-yl)methyl)-2-((1-((dimethylamino)methyl)cyclopropyl)methoxy)-7-(8-ethylnaphthalen-1-yl)-5,6,7,8-tetrahydropyrido[3,4-d]pyrimidin-4-amine], the concentration for half-maximal inhibition (IC50) came to 16900 nM on KRas WT; 17300 nM at KRas G12A; 8480 nM on KRas G12C; 16600 nM at KRas G12S; 15300 nM on KRas G13D; 25300 nM on KRas Q61H. For the same molecule, the IC50 turned out to be 6300 nM at KRas G12D and 3240 nM at KRas G12V.
With `CCc1cccc2cccc(N3CCc4c(nc(OCC5(CN(C)C)CC5)nc4NC4CN(C(=O)NC)C4)C3)c12` [Example 676, 3-((2-((1-((dimethylamino)methyl)cyclopropyl)methoxy)-7-(8-ethylnaphthalen-1-yl)-5,6,7,8-tetrahydropyrido[3,4-d]pyrimidin-4-yl)amino)-N-methylazetidine-1-carboxamide], the half-inhibitory concentration (IC50) at KRas WT came out at 5010 nM; at KRas G12A, 6300 nM; at KRas G12C, 3410 nM; on KRas G12S, 7090 nM; at KRas G13D it was 6220 nM; at KRas Q61H it was 6700 nM. Further, the IC50 was found to be 4290 nM on KRas G12D and 1910 nM at KRas G12V.
With `CCc1cccc2cccc(N3CCc4c(nc(OCC5(CN(C)C)CC5)nc4NCc4cnc(C)nc4N)C3)c12` [Example 677, N-((4-amino-2-methylpyrimidin-5-yl)methyl)-2-((1-((dimethylamino)methyl)cyclopropyl)methoxy)-7-(8-ethylnaphthalen-1-yl)-5,6,7,8-tetrahydropyrido[3,4-d]pyrimidin-4-amine], the IC50 at KRas WT was determined as 11000 nM; on KRas G12A it was 9110 nM; at KRas G12C it was 6330 nM; at KRas G12S it was 13600 nM; at KRas G13D, 13900 nM; at KRas Q61H it was 14100 nM. Moreover, the half-maximal inhibitory concentration (IC50) turned out to be 2330 nM on KRas G12D and 4410 nM on KRas G12V.
